Test results as given in patent publication US9512114B2, “Substituted aminopyrimidine compounds and methods of use” (Calitor Sciences, LLC, priority 2013, dated 2016).

Key:
[1] = Compound stability in rat liver microsomes; type: in vitro ADME; conditions: pH 7.4; for CLint scaled at 5 μM: liver microsomes, in vivo CLint extrapolated from rat liver microsome incubation; for half-life at 5 μM: rat liver microsomes 0.5 mg protein/mL, compound 5 μM, NADPH 1.0 mM, 37° C., read-out: Rat T1/2
Outline: (§1)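 Human or rat liver microsomes (0.5 mg protein/mL) incubated with compound (5 μM) and NADPH (1.0 mM) in 100 mM potassium phosphate, pH 7.4, 0.05% DMSO, 37° C, sampled 0–60 min and quenched with cold acetonitrile. Remaining compound quantified by LC/MS/MS as % of time zero; CLint extrapolated.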

PI3K (p110α/p85α) (h) = PI3K (p110α/p85α) (h) (Homo sapiens (Human), UniProt P42336); assay: PI3K (p110α/p85α) (h) non-radioactive HTRF kinase assay; type: biochemical; conditions: performed at Millipore UK Ltd
Experimental: (§2) The above assay procedure can be used to determine the IC50 for inhibition and/or the inhibition constant, Ki.
PI3K (p110α/p85α) (h) [Non-Radioactive Assay]
(§3) PI3K (p110α/p85α) (h) is incubated in assay buffer containing 10 μM phosphatidylinositol 4,5-bisphosphate and MgATP (concentration as required). The reaction is initiated by the addition of the ATP solution. After incubation for 30 minutes at room temperature, the reaction is stopped by the addition of stop solution containing EDTA and biotinylated phosphatidylinositol-3,4,5-trisphosphate. Finally, detection buffer is added, which contains europium-labelled anti-GST monoclonal antibody, GST-tagged GRP1 PH domain and streptavidin allophycocyanin. The plate is then read in timeresolved fluorescence mode and the homogenous time-resolved fluorescence (HTRF) signal is determined according to the formula HTRF=10000×(Em665 nm/Em620 nm).
(§4) The kinase assays described herein were performed at Millipore UK Ltd, Dundee Technology Park, Dundee DD2 1SW, UK.

[2] = Compound stability in human liver microsomes; type: in vitro ADME; conditions: pH 7.4; for CLint scaled at 5 μM: liver microsomes, in vivo CLint extrapolated from human liver microsome incubation; for half-life at 5 μM: human liver microsomes 0.5 mg protein/mL, compound 5 μM, NADPH 1.0 mM, 37° C., read-out: Human T1/2
Outline: as §1

[3] = Pharmacokinetic profiles in rats; type: in vivo, rat; conditions: for Cl/F / AUC(0-t) / half-life / Vd: iv dosing 1 mg/kg; for F: oral vs iv (iv 1 mg/kg; p.o. generally 5 or 10 mg/kg); for AUC(0-t) / half-life / Vd: rat, plasma; for Vd: read-out: Vss
Outline: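 In rats, dogs and monkeys, IV dose was generally 1 or 2 mg/kg. Oral dose was generally 5 or 10 mg/kg in rats and 10 mg/kg in dogs and monkeys, given as solution, suspension or capsule. Plasma sampled over up to 24 h and analysed by LC/MS/MS.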

PI3K (p110β/p85α) (h) = PI3K (p110β/p85α) (h) (Homo sapiens (Human), UniProt P42338); assay: PI3K (p110β/p85α) (h) non-radioactive HTRF kinase assay; type: biochemical; conditions: performed at Millipore UK Ltd
Experimental: as §2
PI3K (p110β/p85α) (h) [Non-Radioactive Assay]
as §3, with “([…])” for “(p110α/p85α)”, “phosphatidylinositol-4, 5-bisphosphate” for “phosphatidylinositol 4,5-bisphosphate”, “MgATP mix.” for “ATP solution.”, “streptavidin-allophycocyanin.” for “streptavidin allophycocyanin.”
as §4

Chain of PI3K (p110α/p85α) (h) (P42336 whole entry): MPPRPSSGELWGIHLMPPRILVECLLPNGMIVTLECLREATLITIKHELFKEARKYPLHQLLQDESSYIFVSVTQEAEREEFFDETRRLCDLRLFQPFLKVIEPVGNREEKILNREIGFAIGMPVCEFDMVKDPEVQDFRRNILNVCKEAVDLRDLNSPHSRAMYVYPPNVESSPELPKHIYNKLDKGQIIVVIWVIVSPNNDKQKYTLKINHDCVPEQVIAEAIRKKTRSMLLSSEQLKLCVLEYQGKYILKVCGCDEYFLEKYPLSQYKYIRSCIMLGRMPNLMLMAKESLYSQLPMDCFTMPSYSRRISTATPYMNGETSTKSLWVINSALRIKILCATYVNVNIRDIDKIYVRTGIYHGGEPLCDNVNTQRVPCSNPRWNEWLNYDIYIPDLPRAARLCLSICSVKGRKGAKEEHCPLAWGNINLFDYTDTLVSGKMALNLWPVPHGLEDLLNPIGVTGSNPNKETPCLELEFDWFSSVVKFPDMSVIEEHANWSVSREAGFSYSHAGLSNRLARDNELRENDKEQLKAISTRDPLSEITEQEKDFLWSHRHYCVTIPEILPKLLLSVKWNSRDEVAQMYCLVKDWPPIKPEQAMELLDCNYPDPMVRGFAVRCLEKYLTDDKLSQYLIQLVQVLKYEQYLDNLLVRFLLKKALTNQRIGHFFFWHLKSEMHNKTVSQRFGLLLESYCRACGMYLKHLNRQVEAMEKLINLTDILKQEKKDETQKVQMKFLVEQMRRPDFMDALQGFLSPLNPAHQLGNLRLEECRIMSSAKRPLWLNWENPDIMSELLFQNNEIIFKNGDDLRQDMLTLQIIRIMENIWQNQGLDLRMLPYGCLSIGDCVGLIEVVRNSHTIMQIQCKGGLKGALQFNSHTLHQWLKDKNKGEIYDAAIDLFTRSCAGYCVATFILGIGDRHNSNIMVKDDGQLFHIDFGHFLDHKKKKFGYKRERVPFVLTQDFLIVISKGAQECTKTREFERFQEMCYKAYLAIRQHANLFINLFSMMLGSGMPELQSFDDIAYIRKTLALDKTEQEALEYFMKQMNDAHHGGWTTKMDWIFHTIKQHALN
Chain of PI3K (p110α/p85α) (h) (P27986 whole entry partner): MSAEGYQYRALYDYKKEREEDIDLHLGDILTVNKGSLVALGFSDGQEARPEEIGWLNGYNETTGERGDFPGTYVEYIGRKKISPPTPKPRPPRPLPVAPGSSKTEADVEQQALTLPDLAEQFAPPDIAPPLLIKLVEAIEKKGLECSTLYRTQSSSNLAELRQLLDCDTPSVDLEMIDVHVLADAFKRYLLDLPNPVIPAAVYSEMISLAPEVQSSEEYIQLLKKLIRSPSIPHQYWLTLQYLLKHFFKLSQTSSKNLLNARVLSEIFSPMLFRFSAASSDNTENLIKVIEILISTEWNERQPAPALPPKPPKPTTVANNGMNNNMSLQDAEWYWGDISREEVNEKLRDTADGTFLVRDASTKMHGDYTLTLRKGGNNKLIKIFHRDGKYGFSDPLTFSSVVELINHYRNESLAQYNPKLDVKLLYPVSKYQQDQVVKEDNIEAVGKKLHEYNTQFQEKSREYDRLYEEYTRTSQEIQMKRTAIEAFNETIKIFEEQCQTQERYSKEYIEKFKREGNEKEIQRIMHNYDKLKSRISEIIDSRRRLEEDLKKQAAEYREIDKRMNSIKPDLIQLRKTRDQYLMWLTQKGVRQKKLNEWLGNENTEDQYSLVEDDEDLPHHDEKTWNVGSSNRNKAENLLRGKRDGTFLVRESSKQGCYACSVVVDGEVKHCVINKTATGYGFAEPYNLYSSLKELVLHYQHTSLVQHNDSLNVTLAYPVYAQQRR
Chain of PI3K (p110β/p85α) (h) (P42338 whole entry): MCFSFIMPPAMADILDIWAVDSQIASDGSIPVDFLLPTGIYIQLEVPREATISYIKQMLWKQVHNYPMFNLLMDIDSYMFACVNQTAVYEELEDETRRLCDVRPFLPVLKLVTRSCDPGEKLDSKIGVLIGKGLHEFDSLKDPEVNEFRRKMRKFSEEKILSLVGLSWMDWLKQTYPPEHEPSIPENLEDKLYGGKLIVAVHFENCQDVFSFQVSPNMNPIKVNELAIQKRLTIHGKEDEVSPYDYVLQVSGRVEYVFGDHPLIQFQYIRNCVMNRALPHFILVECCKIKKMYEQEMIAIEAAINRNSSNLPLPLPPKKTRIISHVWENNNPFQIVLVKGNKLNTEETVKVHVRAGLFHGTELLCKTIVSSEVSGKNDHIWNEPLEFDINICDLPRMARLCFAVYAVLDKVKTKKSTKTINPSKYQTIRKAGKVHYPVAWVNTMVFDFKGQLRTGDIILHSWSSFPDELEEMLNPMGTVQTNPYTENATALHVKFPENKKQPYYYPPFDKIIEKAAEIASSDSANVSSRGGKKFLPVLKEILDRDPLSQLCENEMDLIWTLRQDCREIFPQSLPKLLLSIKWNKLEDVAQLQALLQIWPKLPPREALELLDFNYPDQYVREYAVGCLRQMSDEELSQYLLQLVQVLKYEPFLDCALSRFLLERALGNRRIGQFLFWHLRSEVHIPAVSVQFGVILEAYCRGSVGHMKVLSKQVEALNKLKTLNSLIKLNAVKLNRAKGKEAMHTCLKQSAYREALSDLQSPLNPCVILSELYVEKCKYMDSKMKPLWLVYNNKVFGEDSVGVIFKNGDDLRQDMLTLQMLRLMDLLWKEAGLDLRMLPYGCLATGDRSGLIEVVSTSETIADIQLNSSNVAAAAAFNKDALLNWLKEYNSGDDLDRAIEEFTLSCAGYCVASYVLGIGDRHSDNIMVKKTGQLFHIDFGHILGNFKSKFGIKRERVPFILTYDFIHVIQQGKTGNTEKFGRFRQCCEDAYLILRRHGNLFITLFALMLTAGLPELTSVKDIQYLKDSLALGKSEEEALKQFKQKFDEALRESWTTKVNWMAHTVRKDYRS
Chain of PI3K (p110β/p85α) (h) (P27986 whole entry partner): as the sequence (P27986 whole entry partner) above

| SMILES | CLint scaled at 5 μM [1] | half-life at 5 μM [1] | IC50 (PI3K (p110α/p85α) (h)) | CLint scaled at 5 μM [2] | half-life at 5 μM [2] | Cl/F [3] | F [3] | AUC(0-t) [3] | half-life [3] | Vd [3] | IC50 (PI3K (p110β/p85α) (h)) |
| --- | --- | --- | --- | --- | --- | --- | --- | --- | --- | --- | --- |
| Cc1nnc(-c2c(N)ncnc2N[C@@H](C)c2cc3cccc(-c4cnn(C)c4)c3c(=O)n2C2CC2)o1 [Ex. 25, (S)-3-(1-((6-amino-5-(5-methyl-1,3,4-oxadiazol-2-yl)pyrimidin-4-yl)amino)ethyl)-2-cyclopropyl-8-(1-methyl-1H-pyrazol-4-yl)isoquinolin-1 (2H)-one] | 14.5 mL/min/kg | 171 min | 882 nM | 28.1 mL/min/kg | 61.9 min | 33.3 mL/min/kg | 81.0% | 497 ng·h/mL | 79.2 min | 3.31 L/kg | 900 nM |
| Cc1noc(-c2c(N)ncnc2N[C@@H](C)c2cc3cccc(-c4cnn(C)c4)c3c(=O)n2C2CC2)n1 [Ex. 26, (S)-3-(1-((6-amino-5-(3-methyl-1,2,4-oxadiazol-5-yl)pyrimidin-4-yl)amino)ethyl)-2-cyclopropyl-8-(1-methyl-1H-pyrazol-4-yl)isoquinolin-1 (2H)-one] | 22.3 mL/min/kg | 112 min | 132 nM | 51.8 mL/min/kg | 33.6 min | 50.3 mL/min/kg | 121.0% | 337 ng·h/mL | 50.4 min | 3.14 L/kg | 176 nM |
| Cc1nnc(-c2c(N)ncnc2N[C@@H](C)c2cc3cccc(Cl)c3c(=O)n2-c2ccccc2)o1 [Ex. 9, (S)-3-(1-((6-amino-5-(5-methyl-1,3,4-oxadiazol-2-yl)pyrimidin-4-yl)amino)ethyl)-8-chloro-2-phenylisoquinolin-1(2H)-one] | 185 mL/min/kg | 13.4 min | 2680 nM | 83.7 mL/min/kg | 20.8 min | 17.3 mL/min/kg | 66.87% | 964 ng·h/mL | 82.8 min | 1.04 L/kg | – |
| Cc1noc(-c2c(N)ncnc2N[C@@H](C)c2cc3cccc(Cl)c3c(=O)n2-c2ccccc2)n1 [Ex. 8, (S)-3-(1-((6-amino-5-(3-methyl-1,2,4-oxadiazol-5-yl)pyrimidin-4-yl)amino)ethyl)-8-chloro-2-phenylisoquinolin-1(2H)-one] | 229 mL/min/kg | 10.9 min | 276 nM | 196 mL/min/kg | 8.88 min | 57.8 mL/min/kg | 93.06% | 291 ng·h/mL | 55.2 min | 1.94 L/kg | – |
| Cc1nnc(-c2c(N)ncnc2N[C@@H](C)c2cc3cccc(Cl)c3c(=O)n2C2CC2)o1 [Ex. 4, (S)-3-(1-((6-amino-5-(5-methyl-1,3,4-oxadiazol-2-yl)pyrimidin-4-yl)amino)ethyl)-8-chloro-2-cyclopropylisoquinolin-1(2H)-one] | 102 mL/min/kg | 24.4 min | 1470 nM | 85.3 mL/min/kg | 20.4 min | 33.3 mL/min/kg | 78.78% | 498 ng·h/mL | 58.8 min | 2.4 L/kg | 30 nM |
